Data taken from ChEMBL document CHEMBL4842340, “Development of Cagrilintide, a Long-Acting Amylin Analogue” (J Med Chem, 2021).
Converted amounts (≈) assume the structure as drawn.

Tests used:
[1] = Agonist activity at human AMY3R (CT+RAMP3) expressed in Hollex1 cells incubated for 3 hrs by luminescence assay; assay type: cell-based; details: Hollex1, 3 h
[2] = Agonist activity at human calcitonin receptor expressed in BHK570 cells assessed as increase in intracellular cAMP concentration incubated for 3 hrs in absence of albumin by CRE luciferase reporter gene assay; assay type: cell-based; details: BHK570, 3 h
[3] = Displacement of [125I]-amylin from human AMY3R (CTR+RAMP3) expressed in BHK-13 cells measured after 120 mins by scintillation proximity assay; assay type: cell-based
[4] = Displacement of [125I]-calcitonin from human calcitonin receptor expressed in tk-ts 13 cells measured after 120 mins by scintillation proximity assay; assay type: cell-based; details: tk-ts13
[5] = Displacement of [125I]-amylin from rat AMY3R (CTR+RAMP3) expressed in BHK-13 cells measured after 120 mins by scintillation proximity assay; assay type: cell-based
[6] = Displacement of [125I]-calcitonin from rat calcitonin receptor expressed in tk-ts 13 cells measured after 120 mins by scintillation proximity assay; assay type: cell-based; details: tk-ts13
[7] = Solubility of the compound in lactate at pH 3 by UPLC analysis; assay type: physicochemical; details: lactate buffer
[8] = Solubility of the compound in lactate at pH 4 by UPLC analysis; assay type: physicochemical; details: lactate buffer
Homo sapiens [9] = species on record: Homo sapiens; experiment: Ratio of EC50 for human calcitonin receptor expressed in BHK570 cells to EC50 for human AMY3R (CT+RAMP3) expressed in Hollex1 cells; assay type: cell-based
Homo sapiens [10] = species on record: Homo sapiens; experiment: Ratio of IC50 for displacement of [125I]-calcitonin from human calcitonin receptor expressed in tk-ts 13 cells to IC50 for displacement of [125I]-amylin from human AMY3R (CTR+RAMP3) expressed in BHK-13 cells; assay type: cell-based
Rattus norvegicus = species on record: Rattus norvegicus; experiment: Ratio of IC50 for displacement of [125I]-calcitonin from rat calcitonin receptor expressed in tk-ts 13 cells to IC50 for displacement of [125I]-amylin from rat AMY3R (CTR+RAMP3) expressed in BHK-13 cells; assay type: cell-based
Insulin (Homo sapiens) [11] = biological target: Insulin (Homo sapiens) (UniProt P01308); experiment: Effect on insulin (unknown origin) amyloid fibril formation assessed as lag time in glycyl-glycine buffer at pH 4 measured after 45 hrs by thioflavin-T fluorescence assay
Insulin (Homo sapiens) [12] = biological target: Insulin (Homo sapiens) (UniProt P01308); experiment: Effect on insulin (unknown origin) amyloid fibril formation assessed as peptide recovery in glycyl-glycine buffer at pH 4 measured after 45 hrs by thioflavin-T fluorescence assay relative to control; set-up: concentration or dose not given beside the values

Sequence of Insulin (Homo sapiens) (P01308 whole entry): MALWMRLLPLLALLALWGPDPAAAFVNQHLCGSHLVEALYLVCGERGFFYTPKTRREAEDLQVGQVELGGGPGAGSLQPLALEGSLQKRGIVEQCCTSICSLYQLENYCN

SMILES | EC50 [1] | EC50 [2] | IC50 [3] | IC50 [4] | IC50 [5] | IC50 [6] | solubility [7] | solubility [8] | Ratio EC50 (Homo sapiens [9]) | Ratio IC50 (Homo sapiens [10]) | Ratio IC50 (Rattus norvegicus) | TIME (Insulin (Homo sapiens) [11]) | Activity (Insulin (Homo sapiens) [12])
CC[C@H](C)[C@H](NC(=O)[C@H](CCC(=O)O)NC(=O)CNC(=O)[C@H](Cc1ccccc1)NC(=O)[C@H](CC(N)=O)NC(=O)[C@H](CC(N)=O)NC(=O)[C@H](CO)NC(=O)[C@H](CO)NC(=O)[C@H](CCCNC(=N)N)NC(=O)[C@H](Cc1cnc[nH]1)NC(=O)[C@H](CC(C)C)NC(=O)[C@H](Cc1ccccc1)NC(=O)[C@H](CCC(=O)O)NC(=O)[C@H](C)NC(=O)[C@H](CC(C)C)NC(=O)[C@H](CCCNC(=N)N)NC(=O)[C@H](CCC(N)=O)NC(=O)[C@@H](NC(=O)[C@H](C)NC(=O)[C@@H]1CSSC[C@H](NC(=O)[C@H](Cc2cnc[nH]2)NC(=O)CC[C@H](NC(=O)CCCCCCCCCCCCCCCCCCC(=O)O)C(=O)O)C(=O)N[C@@H](CC(N)=O)C(=O)N[C@@H]([C@@H](C)O)C(=O)N[C@@H](C)C(=O)N[C@@H]([C@@H](C)O)C(=O)N1)[C@@H](C)O)C(=O)N[C@@H](CC(C)C)C(=O)N[C@@H](CO)C(=O)N[C@@H](CCCNC(=N)N)C(=O)N[C@H](C(=O)N[C@@H](CC(N)=O)C(=O)N[C@H](C(=O)NCC(=O)N[C@@H](CO)C(=O)N[C@@H](CC(N)=O)C(=O)N[C@H](C(=O)N[C@@H](Cc1ccc(O)cc1)C(N)=O)[C@@H](C)O)C(C)C)[C@@H](C)O | 77 pM | 129 pM | 818 pM | 1540 pM | 445 pM | 1370 pM | 200 µM (≈ 913 µg/mL) | 200 µM (≈ 913 µg/mL) |  |  |  |  | 
CC[C@H](C)[C@H](NC(=O)[C@@H](CCC(=O)O)NC(=O)CNC(=O)[C@H](Cc1ccccc1)NC(=O)[C@H](CC(N)=O)NC(=O)[C@H](CC(N)=O)NC(=O)[C@H](CO)NC(=O)[C@H](CO)NC(=O)[C@H](CCCNC(=N)N)NC(=O)[C@H](Cc1cnc[nH]1)NC(=O)[C@H](CC(C)C)NC(=O)[C@H](Cc1ccccc1)NC(=O)[C@H](CCC(=O)O)NC(=O)[C@H](C)NC(=O)[C@H](CC(C)C)NC(=O)[C@H](CCCNC(=N)N)NC(=O)[C@H](CCC(N)=O)NC(=O)[C@@H](NC(=O)[C@H](C)NC(=O)[C@@H]1CSSC[C@H](NC(=O)[C@H](Cc2cnc[nH]2)NC(=O)CC[C@H](NC(=O)CCCCCCCCCCCCCCCCCCC(=O)O)C(=O)O)C(=O)N[C@@H](CC(N)=O)C(=O)N[C@@H]([C@@H](C)O)C(=O)N[C@@H](C)C(=O)N[C@@H]([C@@H](C)O)C(=O)N1)[C@H](C)O)C(=O)N[C@@H](CC(C)C)C(=O)N[C@@H](CO)C(=O)N[C@@H](CCCNC(=N)N)C(=O)N[C@H](C(=O)N[C@@H](CC(N)=O)C(=O)N[C@H](C(=O)NCC(=O)N[C@@H](CO)C(=O)N[C@@H](CC(N)=O)C(=O)N[C@H](C(=O)N[C@@H](Cc1ccc(O)cc1)C(N)=O)[C@@H](C)O)C(C)C)[C@@H](C)O |  |  |  |  |  |  |  |  | 2 | 2 | 3 | 0 h | 0%
